Source: US8987249B2, “Substituted 2-Aza-bicyclo[2.2.1]heptane-3-carboxylic acid (benzyl-cyano-methyl)-amides inhibitors of Cathepsin C” (Boehringer Ingelheim International GmbH, priority 2013, dated 2015)

Assays:
[1] = target: recombinant human DPPI (Cathepsin C) (Homo sapiens (Human), UniProt P53634); test: Inhibition of human DPPI (Cathepsin C); assay type: biochemical; conditions: substrate Gly-Arg-AMC
How it was run: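 Recombinant human DPPI in MES buffer pH 6.0 (5 mM DTT, 0.1% BSA); fluorogenic substrate at 50 μM final, 30 min at room temperature, stopped with 1 μM Gly-Phe-DMK. Background-subtracted fluorescence expressed as percent of vehicle control; IC50 derived.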

[2] = target: recombinant human Cathepsin K (Homo sapiens (Human), UniProt P43235); test: Inhibition of human Cathepsin K; assay type: biochemical; conditions: substrate Z-Gly-Pro-Arg-AMC
How it was run: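 Proenzyme activated in pH 3.5 sodium acetate for 30 min at room temperature. Enzyme (2 ng/μL final) preincubated 10 min with compound (0.1 nM–100 μM, 1% DMSO) in pH 5.5 acetate/EDTA/L-cysteine buffer, then reacted 60 min at room temperature with Z-Gly-Pro-Arg-AMC. Stopped with 1 μM E64; fluorescence Ex 360/Em 460 nm; IC50 from background-subtracted percent of vehicle control.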

[3] = Determination of metabolic stability with human liver microsomes; conditions: pooled human liver microsomes; for half-life at 1 μM: human, pH 7.6

Sequence of recombinant human Cathepsin K (P43235 115-329): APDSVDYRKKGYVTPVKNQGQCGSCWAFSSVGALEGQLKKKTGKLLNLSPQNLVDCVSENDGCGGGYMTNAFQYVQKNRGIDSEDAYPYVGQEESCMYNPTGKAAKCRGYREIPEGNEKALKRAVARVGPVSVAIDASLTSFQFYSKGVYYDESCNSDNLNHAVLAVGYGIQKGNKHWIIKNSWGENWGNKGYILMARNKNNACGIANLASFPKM
Sequence of recombinant human DPPI (Cathepsin C) (P53634 231-394): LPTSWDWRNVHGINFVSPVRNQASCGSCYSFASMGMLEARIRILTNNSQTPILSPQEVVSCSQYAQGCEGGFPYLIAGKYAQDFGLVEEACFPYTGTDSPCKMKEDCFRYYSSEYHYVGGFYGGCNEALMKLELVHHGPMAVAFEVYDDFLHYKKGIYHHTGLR
Sequence of recombinant human DPPI (Cathepsin C) (P53634 395-463): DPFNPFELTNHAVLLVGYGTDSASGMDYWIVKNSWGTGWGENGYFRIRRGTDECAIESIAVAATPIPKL
Sequence of recombinant human DPPI (Cathepsin C) (P53634 25-134): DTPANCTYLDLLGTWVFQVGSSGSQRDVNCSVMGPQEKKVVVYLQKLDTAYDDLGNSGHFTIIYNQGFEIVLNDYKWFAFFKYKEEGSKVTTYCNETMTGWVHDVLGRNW

IC50 [1]	IC50 [2]	half-life at 1 μM [3]	In vitro stability in human liver microsome incubations t½ ([3]; 1 μM test compound, 37° C., NADPH)	SMILES
0.0135 µM	> 30 µM	1.53 h	–	N#CC(Cc1ccc2c(cnc3cc(F)ccc32)c1)NC(=O)[C@H]1N[C@@H]2CC[C@H]1C2 (stereo partly drawn) [Example 315, (1S,2S,4R)—N-[1-cyano-2-(3-fluorophenanthridin-8-yl)ethyl]-3-azabicyclo[2.2.1]heptane-2-carboxamide]
0.0096 µM	4.6 µM	1.48 h	–	N#C[C@H](Cc1ccc(-n2cc(C3CC3)nn2)cc1F)NC(=O)[C@H]1N[C@@H]2CC[C@H]1C2 [Example 67]
0.0156 µM	5.4 µM	> 2.17 h	–	CCC(O)Cc1cn(-c2ccc(C[C@@H](C#N)NC(=O)[C@H]3N[C@@H]4CC[C@H]3C4)c(F)c2)nn1 (stereo partly drawn) [Example 89]
0.0102 µM	6.2 µM	> 2.17 h	–	N#C[C@H](Cc1ccc(-c2ccc(S(N)(=O)=O)cc2)cc1F)NC(=O)[C@H]1N[C@H]2C[C@@H]1[C@@H]1C[C@@H]12 [Example 136]
0.0037 µM	13.3 µM	1.83 h	–	CN1C(=O)Cc2ccc(-c3ccc(C[C@@H](C#N)NC(=O)[C@H]4N[C@@H]5CC[C@H]4C5)c(F)c3F)cc21 [Example 24]
0.0066 µM	13.9 µM	> 2.17 h	–	CS(=O)(=O)c1ccc(-c2ccc(C[C@@H](C#N)NC(=O)[C@H]3N[C@@H]4CC[C@H]3C4)c(F)c2F)cc1 [Example 176]
0.011 µM	5.7 µM	> 2.17 h	–	CNc1nc2cc(-c3ccc(C[C@@H](C#N)NC(=O)[C@H]4N[C@@H]5CC[C@H]4C5)c(F)c3)ccc2n1C [Example 253]
0.0175 µM	4.5 µM	> 2.17 h	–	CN1CCC(Oc2ccc(C[C@@H](C#N)NC(=O)[C@H]3N[C@@H]4CC[C@H]3C4)c(F)c2)CC1 [Example 319, (1S,2S,4R)—N-[(1S)-1-cyano-2-[2-fluoro-4-[(1-methyl-4-piperidyl)oxy]phenyl]ethyl]-3-azabicyclo[2.2.1]heptane-2-carboxamide]
0.0259 µM	5.3 µM	> 2.17 h	–	N#C[C@H](Cc1ccc(-n2cc(COC(=O)N3CCCC3)nn2)cc1F)NC(=O)[C@H]1N[C@@H]2CC[C@H]1C2 [Example 106]
0.0019 µM	2.1 µM	> 2.17 h	–	CS(=O)(=O)c1ccc(-c2ccc(C[C@@H](C#N)NC(=O)[C@H]3N[C@@H]4CC[C@H]3C4)c(F)c2)cc1F [Example 12]
0.004 µM	2.6 µM	1.53 h	–	N#C[C@H](Cc1ccc(-n2cc(-c3ccc4[nH]ccc4c3)nn2)cc1F)NC(=O)[C@H]1N[C@@H]2CC[C@H]1C2 [Example 5, (1S,2S,4R)—N-[(1S)-1-cyano-2-[2-fluoro-4-[4-(1H-indol-5-yl)triazol-1-yl]phenyl]ethyl]-3-azabicyclo[2.2.1]heptane-2-carboxamide]
0.0042 µM	3.8 µM	> 2.17 h	–	N#C[C@H](Cc1ccc(-c2cnn(C[C@@H]3CCCO3)c2)cc1F)NC(=O)[C@H]1N[C@@H]2CC[C@H]1C2 [Example 261]
0.0318 µM	4.3 µM	> 2.17 h	–	COCc1cn(-c2ccc(C[C@@H](C#N)NC(=O)[C@H]3N[C@@H]4CC[C@H]3C4)c(F)c2)nn1 [Example 111]
0.0201 µM	2.5 µM	> 2.17 h	–	CCN1CCC(c2ccc(C[C@@H](C#N)NC(=O)[C@H]3N[C@@H]4CC[C@H]3C4)c(F)c2)CC1 [Example 201]
0.0105 µM	4.7 µM	> 2.17 h	–	CC(C)N1CCCN(c2ccc(C[C@@H](C#N)NC(=O)[C@H]3N[C@@H]4CC[C@H]3C4)c(F)c2)CC1 [Example 267]
0.0016 µM	3.3 µM	> 2.17 h	–	CS(=O)(=O)c1ccc(-c2ccc(C[C@@H](C#N)NC(=O)[C@H]3N[C@@H]4CC[C@H]3C4)c(F)c2)cc1C#N [Example 159]
0.0086 µM	9.7 µM	> 2.17 h	–	N#C[C@H](Cc1ccc(-c2ccc3c(c2)NC(=O)C3)c(F)c1F)NC(=O)[C@H]1N[C@@H]2CC[C@H]1C2 [Example 181]

IC50 [1]	IC50 [2]	half-life at 1 μM [3]	In vitro stability in human liver microsome incubations t½ ([3]; 1 μM test compound, 37° C., NADPH)	SMILES
0.0009 µM	7.4 µM	> 2.17 h	–	N#C[C@H](Cc1ccc(-c2csc(C(N)=O)c2)cc1F)NC(=O)[C@H]1N[C@@H]2CC[C@H]1C2 [Example 157]
0.0067 µM	5.1 µM	> 2.17 h	–	N#C[C@H](Cc1ccc(-c2cccc(S(N)(=O)=O)c2)cc1F)NC(=O)[C@H]1N[C@H]2C[C@@H]1[C@@H]1C[C@@H]12 [Example 143]
0.01 µM	6.2 µM	1.83 h	–	CN(C)C1CCCN(c2ccc(C[C@@H](C#N)NC(=O)[C@H]3N[C@@H]4CC[C@H]3C4)c(F)c2)C1 (stereo partly drawn) [Example 344, (1S,2S,4R)—N-[(1S)-1-cyano-2-[4-[3-(dimethylamino)-1-piperidyl]-2-fluoro-phenyl]ethyl]-3-azabicyclo[2.2.1]heptane-2-carboxamide]
0.0046 µM	4.4 µM	> 2.17 h	–	N#Cc1ccc(-c2ccc(CC(C#N)NC(=O)[C@H]3N[C@@H]4CC[C@H]3C4)c(F)c2)cc1F (stereo partly drawn) [Example 35]
0.0015 µM	9.4 µM	> 2.17 h	–	COCCN1C(=O)Cc2ccc(-c3ccc(C[C@@H](C#N)NC(=O)[C@H]4N[C@@H]5CC[C@H]4C5)c(F)c3)cc21 [Example 158]
0.017 µM	2.5 µM	> 2.17 h	–	CS(=O)(=O)N1CCN(c2ccc(C[C@@H](C#N)NC(=O)[C@H]3N[C@@H]4CC[C@H]3C4)c(F)c2)CC1 [Example 91]
0.0063 µM	3.6 µM	> 2.17 h	–	N#C[C@H](Cc1ccc(N2CCN3CCOC[C@@H]3C2)cc1F)NC(=O)[C@H]1N[C@@H]2CC[C@H]1C2 [Example 249]
0.0021 µM	6.1 µM	> 2.17 h	–	CS(=O)(=O)c1cc(-c2ccc(C[C@@H](C#N)NC(=O)[C@H]3N[C@@H]4CC[C@H]3C4)c(F)c2)ccc1F [Example 152]
0.0045 µM	19.5 µM	1.67 h	–	N#C[C@H](Cc1ccc2c(c1)c(=O)[nH]c1cc(C(F)(F)F)ccc12)NC(=O)[C@H]1N[C@@H]2CC[C@H]1C2 [Example 301]
0.0007 µM	2.1 µM	0.95 h	–	N#C[C@H](Cc1ccc(-c2ccc3c(c2)COC3=O)cc1F)NC(=O)[C@H]1N[C@@H]2CC[C@H]1C2 [Example 3, (1S,2S,4R)—N-[(1S)-1-cyano-2-[2-fluoro-4-(1-oxo-3H-isobenzofuran-5-yl)phenyl]ethyl]-3-azabicyclo[2.2.1]heptane-2-carboxamide]
0.0022 µM	3 µM	> 2.17 h	–	CN1CCN(C(=O)c2cc(-c3ccc(C[C@@H](C#N)NC(=O)[C@H]4N[C@@H]5CC[C@H]4C5)c(F)c3)cs2)CC1=O [Example 233]
0.002 µM	2.7 µM	> 2.17 h	–	CS(=O)(=O)c1cc(-c2ccc(C[C@@H](C#N)NC(=O)[C@H]3N[C@@H]4CC[C@H]3C4)c(F)c2)ccc1C#N [Example 14]
0.0065 µM	3.5 µM	> 2.08 h	–	C[S+]([O-])c1ccc(-c2ccc(C[C@@H](C#N)NC(=O)[C@H]3N[C@@H]4CC[C@H]3C4)c(F)c2)cc1 (stereo partly drawn) [Example 274]
0.0119 µM	5.3 µM	> 2.17 h	–	COc1ccc(-c2cn(-c3ccc(C[C@@H](C#N)NC(=O)[C@H]4N[C@@H]5CC[C@H]4C5)c(F)c3)nn2)cc1OC [Example 77]
0.002 µM	3.2 µM	–	2.17 h	CN1C(=O)Cc2ccc(-c3ccc(CC(C#N)NC(=O)[C@H]4N[C@@H]5CC[C@H]4C5)c(F)c3)cc21 (stereo partly drawn) [Example 15]
0.0041 µM	2.7 µM	> 2.17 h	–	N#C[C@H](Cc1ccc(-c2cnn(CC3CCCCO3)c2)cc1F)NC(=O)[C@H]1N[C@@H]2CC[C@H]1C2 (stereo partly drawn) [Example 28]
0.0029 µM	> 30 µM	> 2.17 h	–	N#CC(Cc1ccc2c(c1)c(=O)[nH]c1c(F)c(F)c(F)cc12)NC(=O)[C@H]1N[C@@H]2CC[C@H]1C2 (stereo partly drawn) [Example 296]
